From patent publication US12245576B2, “Method for genetic manipulation of sap-feeding insects” (The Regents of the University of California, priority 2018, dated 2025) come the findings set out here.

“And” between values parts separate entries of the source, which are not always exact repeats. Identical values can stand only once. Like-named read-outs stand apart in the source and are kept apart here.

In one series the test system is Brassica leaf-discs. The experiment in a line: Phytohormone treatment, calli and root production from Brassica leaf-discs. As to the method: (§1) • 1. Leaf-discs (2.7-cm in diameter) were cut from Brassica leaves (Leaf #2, leaf #3) or eggplant leaves (see above). • 2. […] The discs were placed in Incubator B (higher humidity, higher light). Plates were covered with two fabric screens. • 4.

For the next series, the system named is eggplant leaf-discs. The experiment in a line: Phytohormone treatment, root production from eggplant leaf-discs. As to the method: as §1
In series [1] the test system is plant-derived fungi. The experiment in a line: Surface sterilization of leaves/leaf-discs with EtOH and sodium hypochlorite, control of fungi. An excerpt:
Plates were covered with two fabric screens. […] Plates were covered with one fabric screen.

For series [2], the system named is leaf-discs.
Description: Protocol 1: Ethanol and sodium hypochlorite: The method comprised the following steps: (1) whole leaves (Leaf 2 or leaf 3) were excised from plants; (2) leaves were dipped in 500 ml of 70% EtOH for 10-20 sec; (3) leaves were immersed in 500 ml of 0.01%, 0.06% or 0.24% NaClO for varying periods of time (1-20 min) with and without agitation of the liquid; (4) leaves were washed three to four times in distilled water (500-ml) each; (5) leaves were patted dry with paper towels; and (6) discs are cut from these pretreated leaves.
Protocol 2: Ethanol and sodium hypochlorite: The method comprised the following steps: (1) leaf-discs (2.5-cm in diameter) were cut from leaf 2 (11.5-cm long) or leaf 3 from a 6-wk-old plants; (2) Discs were dipped in 500 ml of 70% EtOH for 10-20 sec; (3) Discs were immersed in 500 ml of 0.01%, 0.06% or 0.24% NaClO for varying periods of time (1-20 min) with and without agitation of the liquid; (4) Discs were washed three to four times in distilled water (500-ml) each; (5) Discs were patted dry with paper towels; (6) Discs were placed on GB+GBV agar plates, covered with a mesh lid, sealed with parafilm, and incubated agar side up; (7) In some experiments, GB-GBV plates were initially incubated agar side down to encourage root growth into the media. […]
For series [3], the system named is plant-derived fungi. The experiment in a line: DMSO/miconazole dips, control of fungi on leaf-discs. To be noted: dipping of leaf-discs in 8% DMSO and 5 μg/ml miconazole. As to the method:
There was no surface sterilization pretreatment; (2) discs were dipped several times in 20% DMSO, 8% DMSO or water (control). Discs were allowed to dry for a short time in the hood. […] Plates were covered with two fabric screens. […] Plates were covered with one fabric screen. In most experiments both incubators were used; […].

The test system of series [4] is leaf-discs. Kind of series: DMSO spray and dips, tolerance by leaf-discs. From the text: There was no surface sterilization pretreatment; (2) discs were placed on GB+GBV agar plates; (3) disc were sprayed using a Preval Atomizer with 20% DMSO or water (control); (4) some plates were allowed to dry overnight in the hood. […] Plates were covered with two fabric screens. […] Plates were covered with one fabric screen.
There was no surface sterilization pretreatment; (2) discs were dipped several times in 20% DMSO, 8% DMSO or water (control). Discs were allowed to dry for a short time in the hood. […] Plates were covered with two fabric screens. […] Plates were covered with one fabric screen.

For the molecule Indole butyric acid [IBA], the “Calli first day detected” value in the series on Brassica leaf-discs is 4 days and 5 days. Besides, the “Roots first detected” value was found to be 5 days in the series with Brassica leaf-discs, 5 days in the series on Brassica leaf-discs (5 mg/L IBA), 6 days in the series with Brassica leaf-discs (7.5 mg/L IBA) and 5 days in the series with Brassica leaf-discs (10 mg/L IBA). The “time in which leaf-discs produced roots” value in the series on Brassica leaf-discs fell in the range of 5 to 6 days. In addition, the detection of roots result with Brassica leaf-discs (1.0 mg/L IBA) is “occasionally detected”. Besides, the “number of root sites per disc” value in the series with Brassica leaf-discs (2.5 mg/L IBA, day 5) was 1 site; with Brassica leaf-discs (5 mg/L IBA, day 5), 2 sites; with Brassica leaf-discs (10 mg/L IBA, day 6), 132B-2 10 sites and 132B-3 15 sites. In addition, the roots per site was 1 root with Brassica leaf-discs (2.5 mg/L IBA, day 5); 3-4 roots per site in the series on Brassica leaf-discs (5 mg/L IBA, day 5); 1-4 roots per site and 1 root per site roots per site in the series with Brassica leaf-discs (10 mg/L IBA, day 5). Also, the “% plates with calli” value with Brassica leaf-discs (5 mg/L IBA) is 67% and 100%; with Brassica leaf-discs (7.5 mg/L IBA), 100%; in the series on Brassica leaf-discs (10 mg/L IBA) it was 100%; in the series with Brassica leaf-discs ([…]) it was 100%. The “roots total per disc” value in the series on Brassica leaf-discs (10 mg/L IBA, day 6, disc 132B-1) was > 6d 132B-1 over 41 roots total. Also, the “discs that formed roots” value in the series with eggplant leaf-discs is recorded as “one”. Further, the “time after which roots formed” value with eggplant leaf-discs is 10 days.

Regarding `[Na+].[O-]Cl` [NaClO, sodium hypochlorite], in the series on plant-derived fungi [1] (prewashing intact leaves with 70% EtOH and 0.24% NaClO, then cutting discs), the “time for which appearance of fungi is prevented” value is given as 19 days. Further, the “slowing of first appearance of fungi on agar plates” value was in the range of 1 to 2 days in the series with plant-derived fungi [1] (prewashing leaves or leaf-discs with 70% EtOH and 0.01% NaClO); 1 to 2 days in the series on plant-derived fungi [1] (prewashing with 70% EtOH and 0.06% NaClO). In the series with leaf-discs [2], the “damage to intact leaves or leaf-discs” value is listed as “No damage was evident”.

Take `O=C(O)Cc1cccc2ccccc12` [NAA, Napthalene Acetic Acid]: the “Roots first detected” value in the series with Brassica leaf-discs (0.1 mg/L NAA) was 5 days. In addition, the results for the “% plates with calli” value with Brassica leaf-discs (1 mg/L NAA) and in the series on Brassica leaf-discs (10 mg/L NAA) were 67% and 100%, respectively. Also, the roots per site in the series with Brassica leaf-discs (1 mg/L NAA, day 4) is 1-3 roots per site and 1 roots per site and 1-2 roots per site; in the series on Brassica leaf-discs (1 mg/L NAA, day 5) it was 1-3 roots per site and 1-2 roots per site; in the series on Brassica leaf-discs (10 mg/L NAA, day 5), 2 per site and 1-3multiple per site and 1-3 per site. In addition, the “Calli first day detected” value with Brassica leaf-discs (10 mg/L NAA in GB + GBV, Incubator B) is 3 days. In addition, in the series with Brassica leaf-discs (10 mg/L NAA, day 4, discs 142B-1 to -3), the “number of root sites per disc” value is recorded as 1 sites. Moreover, the plates with roots entry is “⅔” in the series on Brassica leaf-discs (NAA 0.1 mg/L, day 5); “all three” with Brassica leaf-discs (NAA 1 mg/L, by day 4); “all three” with Brassica leaf-discs (NAA 10 mg/L, by day 4). Further, the “root sites and roots per site detected” value with Brassica leaf-discs (NAA 0.1, 1.0 and 10 mg/L) is “Multiple root sites and multiple roots per site”. For the same molecule, the “effect on production of roots from Brassica leaf-discs” value in the series with Brassica leaf-discs (NAA 0.1, 1.0 and 10 mg/L in GB+GBV) is “enhanced and accelerated the production of roots”. Also, the “production of roots from eggplant leaf-discs” value in the series on eggplant leaf-discs (NAA 0.1, 1.0 and 10 mg/L, within 5 d) is recorded as “did not produce of roots”.

As to `Clc1ccc(COC(Cn2ccnc2)c2ccc(Cl)cc2Cl)c(Cl)c1` (stereo not drawn) [miconazole], in the series with plant-derived fungi [3], the “slowing of growth of plant-derived fungi” value fell in the range of 10 to 12 days.

Take `C[S+](C)[O-]` [DMSO, dimethyl sulfoxide]: the damage to leaf-discs entry with leaf-discs [4] (dipping into 8% DMSO) was “does not cause leaf-disc damage”; with leaf-discs [4] (dipping into 20% DMSO), “does not cause leaf-disc damage”; in the series with leaf-discs [4] (direct spraying with 20% DMSO, two types of atomizers), “causes extensive damage”.
